Experimental data reported in patent US20160067272A1, “METHODS FOR TREATING IMMUNE DISEASES” (priority 2013, published 2016).

How the values were obtained:
[1] = test system: Fully MHC-mismatched tail skin allografts in mice; assay: Skin transplantation model; type: in vivo, mouse
Description: More importantly, in transplantation nTregs promote allograft survival while Th17 cells enhance allograft rejection^44-45. Thus, to study, in vivo, the impact of NAD^+ on nTregs and Th17 cells a transplant mouse model was used. Fully MHC-mismatched C57BL/6 (H2^b) tail skin allografts were transplanted onto DBA/2 (H2^d) mice that received daily intraperitoneally a solution containing NAD^+ or a placebo solution (PBS) and graft survival was monitored. […] Therefore, NAD^+ treatment was expected to promote allograft rejection. […] Recipient mice were evaluated by day 8 and the frequency of nTregs CD4^+CD25^+Foxp3^+ and CD4^+IL17-A^+ cells was assessed (FIG. 14B). […] Next, mechanisms by which NAD^+ could promote nTreg conversion into Th17 cells and allograft survival at the same time, e.g., two paradoxes, were assessed. Strikingly, when compared to the control group, more than 60% of CD4^+ T cells of NAD^+ treated mice were IL-10^+ producing cells (FIG. 14B). It is known that IL-10 is a robust immunosuppressive cytokine^46. Therefore, it was tested whether the allograft survival observed in recipient mice treated with NAD^| was the results of a systemic increase of IL-10 production. Thus, WT and IL-10^−/− mice (on a C57BL6/ background) received a BDA skin transplant and were treated with NAD^|.
Full-thickness tail skin grafts (˜1 cm^2) were procured from C57BL/6 mice and engrafted onto the dorsolateral thoracic wall of DBA/2 recipient mice using interrupted 5-0 Vicryl sutures. NAD^+ (100 μl of a solution containing 10 mg in PBS), or PBS (100 μl) were injected intraperitoneally and grafts were covered with gauze and adhesive bandage for 5 days. Graft survival was then monitored daily and rejection was defined as graft necrosis of 100%. Two investigators blinded for the particular experimental groups assessed graft survival independently. Eight days after transplantation, single-cell leukocyte suspensions were obtained from spleens procured from recipient mice to perform re-stimulation (with PMA and Ionomycin for 2hrs) and staining for surface and intracellular antigens as described above.

[2] = test system: C57Bl/6 mice, OVA-induced allergy; assay: Allergic mouse model (ovalbumin); type: in vivo
Experimental: FIGS. 20A-20C depicts data from an experiment where allergy was induced in mice (C57B1/6) with intraperitoneal injections of OVA at day 1, 7, 14 and 21. Mice were treated with OVA or a placebo solution (PBS). […] NAD+ can therefore be used in chronic inflammation and allergy such as chronic obstructive pulmonary disease and atopic disorders.
The top panel of the figure is a schematic depicting the experimental protocol.
It is understood in a clinical setting that immunosuppressants are unable to specifically target activated/memory CD4+ T cells. Thus, the inventors next investigated the specificity of NAD+ using an allergic mouse model consisting of several intraperitoneal (i.p.) injections of ovalbumin (OVA) with Alumn. As a control, a group of mice received a placebo solution (PBS). In addition, to assess the specific effect of NAD+ on CD4+CD44^highCD62L^high activated/memory T cells, a group of mice received OVA followed by NAD+ injection.

[3] = test system: naïve CD4+ T cells; assay: Naïve CD4+ T cell differentiation under Th1 polarizing conditions (ELISA, flow cytometry); type: cell-based, mouse
Experimental: The inventors next investigated whether NAD^− regulates CD4^+ T cell differentiation in Th1 polarizing conditions. Isolated naïve CD4^+ T cells were cultured with anti-CD3/CD28 antibodies in presence of recombinant IL-12 and IL-2 cytokines and anti-IL4 antibody. […] In contrast to Th0 polarizing conditions, NAD^+ induced a robust IL-10 secretion (>3500 pg/ml) in Th1 cytokine environment (FIG. 1A). Furthermore, pro-inflammatory cytokines such as TNF-α and IL-6 were reduced by NAD^+ (FIG. 7C). […] Furthermore, the study tested whether NAD^+ promoted the shift of human CD4^+ T helper cells in Th1 polarizing conditions towards IL-10 cytokine production. Human peripheral blood CD4^| T cells were activated with anti-CD3/CD28 antibodies under Th1 polarizing conditions (recombinant IL-12 and IL-2 cytokines and anti-IL4 antibody) with increasing concentrations of NAD+. After 96 hours of culture, CD4^+IL-10^+IFNγ^+ cell frequency was assessed by flow cytometry analysis.
Single-cell leukocyte suspensions were obtained from spleens from 8-10 week old DBA mice and CD4^− T cells were isolated by negative selection using a CD4^+ T cell isolation kit (MILTENYI BIOTEC, Bergisch Gladbach, Germany). Cells were further sorted using α-CD4-PE (EBIOSCIENCE, San Diego, Calif.) and purities of CD4^+ T cells after isolation were >98%.
All recombinant cytokines and antibodies were purchased from EBIOSCIENCE except recombinant TGF-β cytokine (R&D SYSTEMS, Minneapolis, Minn.). After 96 hrs of culture supernatants and cells were collected and analyzed by ELISA and flow cytometry, respectively.
Fluorescently labeled anti-mouse α-CD4 (GK1.5), α-CD25 (PC61), α-IFN-γ (XMG1.2) and unlabeled α-CD16/CD32 (2.4G2) antibodies were obtained from BD BIOSCIENCES (San Jose, Calif.). Fluorescently labeled anti-mouse α-IL-4 (FJK-16s), α-IL-10 (JES5-16E3), α-IL-17A (eBio17B7), and anti-TGFβ (TW7-16B4) were obtained from eBIOSCIENCE (San Diego, Calif.). Intracellular staining for IL-4, IL-10, IL-17A, IFNγ and TGFβ was performed according to manufacturers' protocols. Splenocytes were re-stimulated in complete media (RPMI media containing 10% FCS, 1% L-Glutamine, 1% Penicillin/Streptomycin; all Bio Whittaker, Walkersville, Md.) for 4 hours at 37° C. with ionomycin, phorbol 12-myristate 13-acetate and Brefelding A (EBIOSCIENCE). Cells were fixed and permeabilized using CYTOFIX/CYTOPERM solution (BD BIOSCIENCES). Flow cytometry measurements of single-cell suspensions were performed on a FACSCalibur using standard procedures and data were analyzed using FLOWJO software (TREE STAR, Ashland, Oreg.).

[4] = recipient spleen, day 8, NAD+ vs placebo
[5] = OVA i.p. day 1, 7, 14 and 21, with NAD+

NC(=O)c1ccc[n+]([C@@H]2O[C@H](COP(=O)([O-])OP(=O)(O)OC[C@H]3O[C@@H](n4cnc5c(N)ncnc54)[C@H](O)[C@@H]3O)[C@@H](O)[C@H]2O)c1 [NAD+, nicotinamide adenine dinucleotide]
visual sign of rejection ([1]; 13 days after transplantation, daily NAD+): no visual sign of rejection
allografts survived more than 18 days ([1]; C57BL/6 skin onto DBA/2 mice, daily i.p. NAD+): 66%
skin allograft survival ([1]; C57BL/6 skin onto DBA/2 mice, daily i.p. NAD+ vs control group): dramatic allograft survival
skin allograft survival in IL-10−/− mice ([1]; DBA skin onto IL-10−/− mice (C57BL/6 background), NAD+ treatment): abolished the allograft survival
frequencies of CD4+IL-17A+ cells [1, 4]: increased frequencies
frequency of CD4+CD25+Foxp3+ nTregs [1, 4]: reduced frequency
CD4+CD44highCD62Lhigh activated/memory T cell frequency ([2]; OVA followed by NAD+ injection, after 21 days): targets specifically
frequencies of effector T cells induced by the antigen [2, 5]: reduces specifically
frequencies of mature B cells induced by the antigen [2, 5]: reduces specifically
IFN-γ cytokine production ([3]; 96 hrs, ELISA): did not change
IL-6 production ([3]; 96 hrs, ELISA): reduced
IL-10 secretion ([3]; 96 hrs, ELISA): > 3500 pg/mL
IL-17A cytokine production ([3]; 96 hrs, ELISA): 400 pg/mL
TNF-α production ([3]; 96 hrs, ELISA): reduced
IL-10 production by Th1-IFN-γ producing cells ([3]; flow cytometry): promoted
frequency of CD4+IFN-γ cells ([3]; flow cytometry): increased frequencies
frequency of CD4+IL17A+ cells ([3]; flow cytometry): increased frequencies
frequency of CD4+IL-10+ cells ([3]; flow cytometry): increased frequencies
